According to PubChem BioAssay (NCI):
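The compound was tested at five concentrations on cells cultured in 96-well plates, with a 48-hour exposure period. TGI: concentration producing complete growth inhibition.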

Legend:
Assay in all cases: NCI-60 cell line screen, 48 h
UACC-62 melanoma = test system: UACC-62 melanoma
SNB-75 CNS = test system: SNB-75 CNS
OVCAR-4 ovarian = test system: OVCAR-4 ovarian
NCI-H23 lung = test system: NCI-H23 lung
TK-10 renal = test system: TK-10 renal
HOP-62 NSCLC = test system: HOP-62 NSCLC
MOLT-4 leukemia = test system: MOLT-4 leukemia
LOX IMVI melanoma = test system: LOX IMVI melanoma
OVCAR-3 ovarian = test system: OVCAR-3 ovarian
KM12 colon = test system: KM12 colon
SN12C renal = test system: SN12C renal
SNB-19 CNS = test system: SNB-19 CNS
RXF 393 renal = test system: RXF 393 renal
SK-MEL-2 melanoma = test system: SK-MEL-2 melanoma
SF-268 CNS = test system: SF-268 CNS
HCT-116 colon = test system: HCT-116 colon
NCI-H460 lung = test system: NCI-H460 lung
K-562 leukemia = test system: K-562 leukemia
LXFL 529 NSCLC = test system: LXFL 529 NSCLC
M19-MEL melanoma = test system: M19-MEL melanoma
UO-31 renal = test system: UO-31 renal
HCC-2998 colon = test system: HCC-2998 colon
ACHN renal = test system: ACHN renal
DMS 114 small cell lung = test system: DMS 114 small cell lung
SF-539 CNS = test system: SF-539 CNS
OVCAR-5 ovarian = test system: OVCAR-5 ovarian
SNB-78 CNS = test system: SNB-78 CNS
SK-MEL-28 melanoma = test system: SK-MEL-28 melanoma
M14 melanoma = test system: M14 melanoma
XF 498 CNS = test system: XF 498 CNS
NCI-H522 lung = test system: NCI-H522 lung
HL-60(TB) leukemia = test system: HL-60(TB) leukemia
SK-OV-3 ovarian = test system: SK-OV-3 ovarian
EKVX NSCLC = test system: EKVX NSCLC
MALME-3M melanoma = test system: MALME-3M melanoma
CCRF-CEM leukemia = test system: CCRF-CEM leukemia
U251 CNS = test system: U251 CNS
A498 renal = test system: A498 renal
DLD-1 colon = test system: DLD-1 colon
HT29 colon = test system: HT29 colon
UACC-257 melanoma = test system: UACC-257 melanoma
OVCAR-8 ovarian = test system: OVCAR-8 ovarian
CAKI-1 renal = test system: CAKI-1 renal
MCF7 breast = test system: MCF7 breast
A549 NSCLC = test system: A549 NSCLC
HOP-92 NSCLC = test system: HOP-92 NSCLC
MDA-MB-231 breast = test system: MDA-MB-231 breast
NCI-H226 lung = test system: NCI-H226 lung
DU-145 prostate = test system: DU-145 prostate
MDA-MB-435 = test system: MDA-MB-435
HCT-15 colon = test system: HCT-15 colon
SW-620 colon = test system: SW-620 colon
SK-MEL-5 melanoma = test system: SK-MEL-5 melanoma
COLO 205 colon = test system: COLO 205 colon
NCI/ADR-RES ovarian = test system: NCI/ADR-RES ovarian
PC-3 prostate = test system: PC-3 prostate
MDA-N = test system: MDA-N
HS 578T breast = test system: HS 578T breast
786-0 renal = test system: 786-0 renal
SF-295 CNS = test system: SF-295 CNS
BT-549 breast = test system: BT-549 breast
IGROV1 ovarian = test system: IGROV1 ovarian
T-47D breast = test system: T-47D breast
RPMI-8226 leukemia = test system: RPMI-8226 leukemia
SR leukemia = test system: SR leukemia

How did the TGI (UACC-62 melanoma) turn out when `COc1c(Cl)cc(S(=O)O)cc1Cl` was run?
The TGI was > 100 µM.

And the TGI (SNB-75 CNS)?
Its TGI is > 100 µM.

And the TGI (OVCAR-4 ovarian)?
Its TGI is > 100 µM.

And the TGI (NCI-H23 lung)?
Its TGI is > 100 µM.

What about the TGI (TK-10 renal) of the same molecule?
Its TGI is > 100 µM.

And the TGI (HOP-62 NSCLC)?
Its TGI is > 100 µM.

What about the TGI (MOLT-4 leukemia) of the same molecule?
The TGI was > 100 µM.

And the TGI (LOX IMVI melanoma)?
Its TGI is > 100 µM.

What about the TGI (OVCAR-3 ovarian) of the same molecule?
The TGI was > 100 µM.

What about the TGI (KM12 colon) of the same molecule?
Its TGI is > 100 µM.

What about the TGI (SN12C renal) of the same molecule?
The TGI was > 100 µM.

And the TGI (SNB-19 CNS)?
The TGI was > 100 µM.

What about the TGI (RXF 393 renal) of the same molecule?
The TGI was > 100 µM.

And the TGI (SK-MEL-2 melanoma)?
Its TGI is > 100 µM.

What about the TGI (SF-268 CNS) of the same molecule?
The TGI was > 100 µM.

And the TGI (HCT-116 colon)?
The TGI was > 100 µM.

What about the TGI (NCI-H460 lung) of the same molecule?
The TGI was > 100 µM.

And the TGI (K-562 leukemia)?
The TGI was > 100 µM.

And the TGI (LXFL 529 NSCLC)?
The TGI was > 100 µM.

What about the TGI (M19-MEL melanoma) of the same molecule?
The TGI was > 100 µM.

What about the TGI (UO-31 renal) of the same molecule?
Its TGI is > 100 µM.

And the TGI (HCC-2998 colon)?
The TGI was > 100 µM.

And the TGI (ACHN renal)?
The TGI was > 100 µM.

And the TGI (DMS 114 small cell lung)?
The TGI was > 100 µM.

What about the TGI (SF-539 CNS) of the same molecule?
The TGI was > 100 µM.

What about the TGI (OVCAR-5 ovarian) of the same molecule?
The TGI was > 100 µM.

And the TGI (SNB-78 CNS)?
The TGI was > 100 µM.

What about the TGI (SK-MEL-28 melanoma) of the same molecule?
The TGI was > 100 µM.

And the TGI (M14 melanoma)?
Its TGI is > 100 µM.

What about the TGI (XF 498 CNS) of the same molecule?
Its TGI is > 100 µM.

What about the TGI (NCI-H522 lung) of the same molecule?
The TGI was > 100 µM.

What about the TGI (HL-60(TB) leukemia) of the same molecule?
Its TGI is > 100 µM.

And the TGI (SK-OV-3 ovarian)?
The TGI was > 100 µM.

What about the TGI (EKVX NSCLC) of the same molecule?
The TGI was > 100 µM.

And the TGI (MALME-3M melanoma)?
Its TGI is > 100 µM.

What about the TGI (CCRF-CEM leukemia) of the same molecule?
Its TGI is > 100 µM.

What about the TGI (U251 CNS) of the same molecule?
The TGI was > 100 µM.

What about the TGI (A498 renal) of the same molecule?
Its TGI is > 100 µM.

What about the TGI (DLD-1 colon) of the same molecule?
Its TGI is > 100 µM.

What about the TGI (HT29 colon) of the same molecule?
The TGI was > 100 µM.

And the TGI (UACC-257 melanoma)?
The TGI was > 100 µM.

What does the source list for `COc1cc(Br)cc2nc(-c3cccs3)oc12`?
TGI (OVCAR-8 ovarian): > 100 µM; TGI (CAKI-1 renal): > 100 µM; TGI (UACC-62 melanoma): > 100 µM; TGI (SNB-75 CNS): > 85.9 µM; TGI (MCF7 breast): > 100 µM; TGI (OVCAR-4 ovarian): > 100 µM; TGI (A549 NSCLC): > 100 µM; TGI (NCI-H23 lung): > 100 µM; TGI (TK-10 renal): > 77.6 µM; TGI (HOP-62 NSCLC): > 92.1 µM; TGI (MOLT-4 leukemia): > 100 µM; TGI (HOP-92 NSCLC): > 100 µM; TGI (LOX IMVI melanoma): > 100 µM; TGI (OVCAR-3 ovarian): > 100 µM; TGI (KM12 colon): > 100 µM; TGI (SN12C renal): > 100 µM; TGI (SNB-19 CNS): > 100 µM; TGI (RXF 393 renal): > 100 µM; TGI (SK-MEL-2 melanoma): > 100 µM; TGI (MDA-MB-231 breast): > 100 µM; TGI (SF-268 CNS): > 100 µM; TGI (HCT-116 colon): > 100 µM; TGI (NCI-H460 lung): > 100 µM; TGI (K-562 leukemia): > 100 µM; TGI (NCI-H226 lung): > 100 µM; TGI (DU-145 prostate): > 100 µM; TGI (MDA-MB-435): > 100 µM; TGI (HCT-15 colon): > 100 µM; TGI (SW-620 colon): > 100 µM; TGI (SK-MEL-5 melanoma): > 100 µM; TGI (UO-31 renal): > 100 µM; TGI (COLO 205 colon): > 100 µM; TGI (NCI/ADR-RES ovarian): > 100 µM; TGI (HCC-2998 colon): > 100 µM; TGI (ACHN renal): > 100 µM; TGI (SF-539 CNS): > 100 µM; TGI (OVCAR-5 ovarian): > 100 µM; TGI (SK-MEL-28 melanoma): > 100 µM; TGI (PC-3 prostate): > 100 µM; TGI (M14 melanoma): > 100 µM; TGI (NCI-H522 lung): > 100 µM; TGI (MDA-N): > 100 µM; TGI (HL-60(TB) leukemia): > 100 µM; TGI (SK-OV-3 ovarian): > 100 µM; TGI (EKVX NSCLC): > 100 µM; TGI (MALME-3M melanoma): > 100 µM; TGI (HS 578T breast): > 68 µM; TGI (786-0 renal): > 100 µM; TGI (SF-295 CNS): > 100 µM; TGI (CCRF-CEM leukemia): > 100 µM; TGI (U251 CNS): > 100 µM; TGI (A498 renal): > 100 µM; TGI (BT-549 breast): > 100 µM; TGI (IGROV1 ovarian): > 100 µM; TGI (T-47D breast): > 100 µM; TGI (RPMI-8226 leukemia): > 100 µM; TGI (HT29 colon): > 100 µM; TGI (SR leukemia): > 100 µM; TGI (UACC-257 melanoma): > 100 µM
